Measurements: patent US20240018145A1, “[…]-DEPENDENT EN[…] TREATING OR […]” (priority 2020, published 2024)

What follows are compounds tested on FLU A (PR/8/34) (assay: Flu A Neuraminidase Antiviral Assay). Conditions: not given.
Type: cell-based

| SMILES | EC50 |
| --- | --- |
| Cc1ccccc1C1C(CCC(F)F)CCC2N(C)C(=O)c3c(O)c(=O)ccn3N12 (single isomer, unassigned) [Compound 103A, 2-(3,3-difluoropropyl)-7-hydroxy-5-methyl-1-(o-tolyl)-1,2,3,4,4a,5-hexahydrodipyrido[1,2-b:2′,1′-f][1,2,4]triazine-6,8-dione] | > 810 nM |
| Cc1ccccc1C1C(CCC(F)F)CCC2N(C)C(=O)c3c(O)c(=O)ccn3N12 (single isomer, unassigned) [Compound 103B, 2-(3,3-difluoropropyl)-7-hydroxy-5-methyl-1-(o-tolyl)-1,2,3,4,4a,5-hexahydrodipyrido[1,2-b:2′,1′-f][1,2,4]triazine-6,8-dione] | 5.3 nM |
| CCN1C(=O)c2c(O)c(=O)ccn2N2C(c3ccccc3)C(C3(C(F)(F)F)CC3)CCC12 (single isomer, unassigned) [Compound 104A, 5-ethyl-7-hydroxy-1-phenyl-2-(1-(trifluoromethyl)cyclopropyl)-1,2,3,4,4a,5-hexahydrodipyrido[1,2-b:2′,1′-f][1,2,4]triazine-6,8-dione] | 8 nM |
| CCN1C(=O)c2c(O)c(=O)ccn2N2C(c3ccccc3)C(C3(C(F)(F)F)CC3)CCC12 (single isomer, unassigned) [Compound 104B, 5-ethyl-7-hydroxy-1-phenyl-2-(1-(trifluoromethyl)cyclopropyl)-1,2,3,4,4a,5-hexahydrodipyrido[1,2-b:2′,1′-f][1,2,4]triazine-6,8-dione] | > 810 nM |
| CN1C(=O)c2c(O)c(=O)ccn2N2C(c3ccccc3)C(C3CC3(F)F)CCC12 (single isomer, unassigned) [Compound 105B, 2-(2,2-difluorocyclopropyl)-7-hydroxy-5-methyl-1-phenyl-1,2,3,4,4a,5-hexahydrodipyrido[1,2-b:2′,1′-f][1,2,4]triazine-6,8-dione] | > 810 nM |
| CCN1C(=O)c2c(O)c(=O)ccn2N2C(c3ccccc3Br)C(CC(F)(F)F)CCC12 (single isomer, unassigned) [Compound 106A, 1-(2-bromophenyl)-5-ethyl-7-hydroxy-2-(2,2,2-trifluoroethyl)-1,2,3,4,4a,5-hexahydrodipyrido[1,2-b:2′,1′-f][1,2,4]triazine-6,8-dione] | 6.4 nM |
| CCN1C(=O)c2c(O)c(=O)ccn2N2C(c3ccccc3Br)C(CC(F)(F)F)CCC12 (single isomer, unassigned) [Compound 106B, 1-(2-bromophenyl)-5-ethyl-7-hydroxy-2-(2,2,2-trifluoroethyl)-1,2,3,4,4a,5-hexahydrodipyrido[1,2-b:2′,1′-f][1,2,4]triazine-6,8-dione] | 87.8 nM |
| CN1C(=O)c2c(O)c(=O)ccn2N2C(c3ccccc3C3CC3)C(CC(F)(F)F)CCC12 (single isomer, unassigned) [Compound 107A, 1-(2-cyclopropylphenyl)-7-hydroxy-5-methyl-2-(2,2,2-trifluoroethyl)-1,2,3,4,4a,5-hexahydrodipyrido[1,2-b:2′,1′-f][1,2,4]triazine-6,8-dione] | 4800 nM |
| CN1C(=O)c2c(O)c(=O)ccn2N2C(c3ccccc3C3CC3)C(CC(F)(F)F)CCC12 (single isomer, unassigned) [Compound 107B, 1-(2-cyclopropylphenyl)-7-hydroxy-5-methyl-2-(2,2,2-trifluoroethyl)-1,2,3,4,4a,5-hexahydrodipyrido[1,2-b:2′,1′-f][1,2,4]triazine-6,8-dione] | 14.4 nM |
| CN1C(=O)c2c(O)c(=O)ccn2N2C(c3ccccc3)C(C3(C(F)(F)F)CC3)CCC12 (single isomer, unassigned) [Compound 108A, 7-hydroxy-5-methyl-1-phenyl-2-(1-(trifluoromethyl)cyclopropyl)-1,2,3,4,4a,5-hexahydrodipyrido[1,2-b:2′,1′-f][1,2,4]triazine-6,8-dione] | 5420 nM |
| CN1C(=O)c2c(O)c(=O)ccn2N2C(c3ccccc3)C(C3(C(F)(F)F)CC3)CCC12 (single isomer, unassigned) [Compound 108B, 7-hydroxy-5-methyl-1-phenyl-2-(1-(trifluoromethyl)cyclopropyl)-1,2,3,4,4a,5-hexahydrodipyrido[1,2-b:2′,1′-f][1,2,4]triazine-6,8-dione] | 9.4 nM |
| CC(C1CCC2N(C)C(=O)c3c(O)c(=O)ccn3N2C1c1ccccc1)C(F)(F)F (single isomer, unassigned) [Compound 109A, 7-hydroxy-5-methyl-1-phenyl-2-(1,1,1-trifluoropropan-2-yl)-1,2,3,4,4a,5-hexahydrodipyrido[1,2-b:2′,1′-f][1,2,4]triazine-6,8-dione] | 803 nM |
| CC(C1CCC2N(C)C(=O)c3c(O)c(=O)ccn3N2C1c1ccccc1)C(F)(F)F (single isomer, unassigned) [Compound 109B, 7-hydroxy-5-methyl-1-phenyl-2-(1,1,1-trifluoropropan-2-yl)-1,2,3,4,4a,5-hexahydrodipyrido[1,2-b:2′,1′-f][1,2,4]triazine-6,8-dione] | 5.4 nM |
| CCN1C(=O)c2c(O)c(=O)ccn2N2C(c3ccccc3)C(CCC(F)F)CCC12 (single isomer, unassigned) [Compound 110A, 2-(3,3-difluoropropyl)-5-ethyl-7-hydroxy-1-phenyl-1,2,3,4,4a,5-hexahydrodipyrido[1,2-b:2′,1′-f][1,2,4]triazine-6,8-dione] | 1120 nM |
| CCN1C(=O)c2c(O)c(=O)ccn2N2C(c3ccccc3)C(CCC(F)F)CCC12 (single isomer, unassigned) [Compound 110B, 2-(3,3-difluoropropyl)-5-ethyl-7-hydroxy-1-phenyl-1,2,3,4,4a,5-hexahydrodipyrido[1,2-b:2′,1′-f][1,2,4]triazine-6,8-dione] | 5.5 nM |
| CN1C(=O)c2c(O)c(=O)ccn2N2C(c3ccccc3)C(CC(F)(F)F)CCC12C (single isomer, unassigned) [Compound 111A, 7-hydroxy-4a,5-dimethyl-1-phenyl-2-(2,2,2-trifluoroethyl)-1,2,3,4,4a,5-hexahydrodipyrido[1,2-b:2′,1′-f][1,2,4]triazine-6,8-dione] | > 8100 nM |
| CN1C(=O)c2c(O)c(=O)ccn2N2C(c3ccccc3)C(CC(F)(F)F)CCC12C (single isomer, unassigned) [Compound 111B, 7-hydroxy-4a,5-dimethyl-1-phenyl-2-(2,2,2-trifluoroethyl)-1,2,3,4,4a,5-hexahydrodipyrido[1,2-b:2′,1′-f][1,2,4]triazine-6,8-dione] | 3.3 nM |
| CCc1ccccc1C1C(CC(F)(F)F)CCC2N(C)C(=O)c3c(O)c(=O)ccn3N12 (single isomer, unassigned) [Compound 112A, 1-(2-ethylphenyl)-7-hydroxy-5-methyl-2-(2,2,2-trifluoroethyl)-1,2,3,4,4a,5-hexahydrodipyrido[1,2-b:2′,1′-f][1,2,4]triazine-6,8-dione] | 3.7 nM |
| CCc1ccccc1C1C(CC(F)(F)F)CCC2N(C)C(=O)c3c(O)c(=O)ccn3N12 (single isomer, unassigned) [Compound 112B, 1-(2-ethylphenyl)-7-hydroxy-5-methyl-2-(2,2,2-trifluoroethyl)-1,2,3,4,4a,5-hexahydrodipyrido[1,2-b:2′,1′-f][1,2,4]triazine-6,8-dione] | 162 nM |
| CN1C(=O)c2c(O)c(=O)ccn2N2C(c3ccccc3F)C(CC(F)F)CCC12 (single isomer, unassigned) [Compound 113A, 2-(2,2-difluoroethyl)-1-(2-fluorophenyl)-7-hydroxy-5-methyl-1,2,3,4,4a,5-hexahydrodipyrido[1,2-b:2′,1′-f][1,2,4]triazine-6,8-dione] | 3440 nM |
| CN1C(=O)c2c(O)c(=O)ccn2N2C(c3ccccc3F)C(CC(F)F)CCC12 (single isomer, unassigned) [Compound 113B, 2-(2,2-difluoroethyl)-1-(2-fluorophenyl)-7-hydroxy-5-methyl-1,2,3,4,4a,5-hexahydrodipyrido[1,2-b:2′,1′-f][1,2,4]triazine-6,8-dione] | 7.3 nM |
| CN1C(=O)c2c(O)c(=O)ccn2N2C(c3ccccc3)C(CC3CC3(F)F)CCC12 (single isomer, unassigned) [Compound 114A, 2-((2,2-difluorocyclopropyl)methyl)-7-hydroxy-5-methyl-1-phenyl-1,2,3,4,4a,5-hexahydrodipyrido[1,2-b:2′,1′-f][1,2,4]triazine-6,8-dione] | > 8100 nM |
| CN1C(=O)c2c(O)c(=O)ccn2N2C(c3ccccc3)C(CC3CC3(F)F)CCC12 (single isomer, unassigned) [Compound 114B, 2-((2,2-difluorocyclopropyl)methyl)-7-hydroxy-5-methyl-1-phenyl-1,2,3,4,4a,5-hexahydrodipyrido[1,2-b:2′,1′-f][1,2,4]triazine-6,8-dione] | > 8100 nM |
| CN1C(=O)c2c(O)c(=O)ccn2N2C(c3ccccc3)C(CC3CC3(F)F)CCC12 (single isomer, unassigned) [Compound 114C, 2-((2,2-difluorocyclopropyl)methyl)-7-hydroxy-5-methyl-1-phenyl-1,2,3,4,4a,5-hexahydrodipyrido[1,2-b:2′,1′-f][1,2,4]triazine-6,8-dione] | 5.3 nM |
| CN1C(=O)c2c(O)c(=O)ccn2N2C(c3ccccc3)C(CC3CC3(F)F)CCC12 (single isomer, unassigned) [Compound 114D, 2-((2,2-difluorocyclopropyl)methyl)-7-hydroxy-5-methyl-1-phenyl-1,2,3,4,4a,5-hexahydrodipyrido[1,2-b:2′,1′-f][1,2,4]triazine-6,8-dione] | 2.3 nM |
| CN1C(=O)c2c(O)c(=O)ccn2N2C(c3ccccc3)C(CCC3CC3)CCC12 (single isomer, unassigned) [Compound 115A, 2-(2-cyclopropylethyl)-7-hydroxy-5-methyl-1-phenyl-1,2,3,4,4a,5-hexahydrodipyrido[1,2-b:2′,1′-f][1,2,4]triazine-6,8-dione] | > 8100 nM |

Same assay, conditions: MDCK, 48 h

| SMILES | EC50 |
| --- | --- |
| CN1C(=O)c2c(O)c(=O)ccn2N2C(c3ccccc3)C(C3CC3(F)F)CCC12 (single isomer, unassigned) [Compound 105A, 2-(2,2-difluorocyclopropyl)-7-hydroxy-5-methyl-1-phenyl-1,2,3,4,4a,5-hexahydrodipyrido[1,2-b:2′,1′-f][1,2,4]triazine-6,8-dione] | 413 nM |
